Experimental findings from patent publication US20240116985A1, “STAPLED PEPTIDES AND METHODS THEREOF” (priority 2020, published 2024) are described below.

This series is described as follows: Solubility in PBS. The conditions noted are these: for solubility at 15 min: Solubility (uM). It is filed as physicochemical. As for the experimental part:
After ultracentrifugation of the PBS solution, the supernatant was analyzed by HPLC and compared to an HPLC injection 50 μM peptide DMSO solution. Solubility was determined by: [(Area of PBS peak)/(Area of DMSO peak)]*50 uM.

In brackets after ≈: the same amount, converted by molar mass.

With `CC(=O)N1CCC[C@]12CC=CCCCC1(CCCC=CCCCOC(=O)N3CC[C@@](C(=O)N[C@@H](Cc4ccccc4)C(=O)N[C@@H](Cc4csc5ccccc45)C(=O)N[C@@H](CCC(N)=O)C(N)=O)(C3)NC(=O)[C@H](CC(C)C)NC(=O)[C@H](Cc3ccccc3)NC(=O)[C@H](C)NC(=O)[C@H](C)NC(=O)[C@H]([C@@H](C)O)NC(=O)[C@H](CC(N)=O)NC1=O)NC(=O)[C@H](C)NC(=O)[C@H](CC(=O)O)NC2=O` (single isomer, unassigned) [I-1295, Ac-PL3-Asp-Ala-B5-Asn-Thr-Ala-Ala-Phe-Leu-PyrS2-Phe-BztA-Gln-NH2], the “Solubility” value was found to be 10 µM (≈ 18.4 µg/mL).

On to `CC(=O)N1CCC[C@]12CC=CCCCC1(CCCC=CCCCOC(=O)N3CC[C@@](C(=O)N[C@@H](Cc4ccccc4)C(=O)N[C@@H](Cc4csc5ccccc45)C(=O)N[C@H](C(N)=O)[C@@H](C)O)(C3)NC(=O)[C@H](CC(C)C)NC(=O)[C@H](Cc3ccccc3)NC(=O)[C@H](C)NC(=O)[C@H](C)NC(=O)[C@H]([C@@H](C)O)NC(=O)[C@H](CC(N)=O)NC1=O)NC(=O)[C@H](CC(C)(C)C)NC(=O)[C@H](CC(=O)O)NC2=O` (single isomer, unassigned) [I-1299, Ac-PL3-Asp-Npg-B5-Asn-Thr-Ala-Ala-Phe-Leu-PyrS2-Phe-BztA-Thr-NH2], for which the “Solubility” value was determined as 10 µM (≈ 18.7 µg/mL).

Take `CC(=O)N1CCC[C@]12CC=CCCCC1(CCCC=CCCCOC(=O)N3CC[C@@](C(=O)N[C@@H](Cc4ccccc4)C(=O)N[C@@H](Cc4csc5ccccc45)C(=O)N[C@H](C(N)=O)[C@@H](C)O)(C3)NC(=O)[C@H](CC(C)C)NC(=O)[C@H](Cc3ccccc3)NC(=O)[C@H](C)NC(=O)[C@H](C)NC(=O)[C@H]([C@@H](C)O)NC(=O)[C@H](CC(N)=O)NC1=O)NC(=O)[C@H](CC(C)(C)C)NC(=O)[C@H](CC(=O)O)NC2=O` (single isomer, unassigned) [I-1300, Ac-PL3-Asp-Npg-B5-Asn-Thr-Ala-Ala-Phe-Leu-PyrS2-Phe-BztA-Thr-NH2]: the “Solubility” value was determined as 10 µM (≈ 18.7 µg/mL).

For `CC(=O)N1CCC[C@]12CC=CCCCC1(CCCC=CCCCOC(=O)N3CC[C@@](C(=O)N[C@@H](Cc4ccsc4)C(=O)N[C@@H](Cc4csc5ccccc45)C(=O)N[C@@H](CCC(N)=O)C(N)=O)(C3)NC(=O)[C@H](CC(N)=O)NC(=O)[C@H](Cc3ccccc3)NC(=O)[C@H](C)NC(=O)[C@H](C)NC(=O)[C@H](CC(=O)O)NC(=O)[C@H](CCN)NC1=O)NC(=O)[C@H](CC(C)(C)C)NC(=O)[C@H](CC(=O)O)NC2=O` (stereo partly drawn) [I-1216, Ac-PL3-Asp-Npg-B5-Dab-Asp-Ala-Ala-Phe-Asn-PyrS2-3Thi-BztA-Gln-NH2], the “Solubility” value is 10 µM (≈ 19 µg/mL).

With `CC(=O)N1CCC[C@]12CC=CCCCC1(CCCC=CCCCOC(=O)N3CC[C@@](C(=O)N[C@@H](Cc4ccsc4)C(=O)N[C@@H](Cc4csc5ccccc45)C(=O)N[C@@H](CCC(N)=O)C(N)=O)(C3)NC(=O)[C@H](CC(C)C)NC(=O)[C@H](Cc3ccccc3)NC(=O)[C@H](C)NC(=O)[C@H](C)NC(=O)[C@H](CC(=O)O)NC(=O)[C@H](CCN)NC1=O)NC(=O)[C@H](CC(C)(C)C)NC(=O)[C@H](CC(=O)O)NC2=O` (stereo partly drawn) [I-1217, Ac-PL3-Asp-Npg-B5-Dab-Asp-Ala-Ala-Phe-Leu-PyrS2-3Thi-BztA-Gln-NH2], the solubility at 15 min amounted to 15 µM (≈ 28.5 µg/mL).

As to `CC(=O)N1CCC[C@]12CC=CCCCC1(CCCC=CCCCOC(=O)N3CC[C@@](C(=O)N[C@@H](Cc4ccccc4)C(=O)N[C@@H](Cc4cccc5ccccc45)C(=O)N[C@@H](CCC(N)=O)C(N)=O)(C3)NC(=O)[C@H](CC(C)C)NC(=O)[C@H](Cc3ccccc3)NC(=O)[C@H](C)NC(=O)[C@H](C)NC(=O)[C@H]([C@@H](C)O)NC(=O)[C@H](CC(=O)O)NC1=O)NC(=O)[C@H](CC(C)(C)C)NC(=O)[C@H](CC(N)=O)NC2=O` (stereo partly drawn) [I-1290, Ac-PL3-Asn-Npg-B5-Asp-Thr-Ala-Ala-Phe-Leu-PyrS2-Phe-1NapA-Gln-NH2], the “Solubility” value amounted to 10 µM (≈ 18.9 µg/mL).

In the case of `CC(=O)N1CCC[C@]12CC=CCCCC1(CCCC=CCCCOC(=O)N3CC[C@@](C(=O)N[C@@H](Cc4ccccc4)C(=O)N[C@@H](Cc4csc5ccccc45)C(=O)N[C@@H](CCC(N)=O)C(N)=O)(C3)NC(=O)[C@H](CC(C)C)NC(=O)[C@H](Cc3ccccc3)NC(=O)[C@H](C)NC(=O)[C@H](C)NC(=O)[C@H]([C@@H](C)O)NC(=O)[C@H](CC(N)=O)NC1=O)NC(=O)[C@H](CC(C)(C)C)NC(=O)[C@H](CC(=O)O)NC2=O` (stereo partly drawn) [I-1294, Ac-PL3-Asp-Npg-B5-Asn-Thr-Ala-Ala-Phe-Leu-PyrS2-Phe-BztA-Gln-NH2], the “Solubility” value worked out at 10 µM (≈ 19 µg/mL).

Take `CC(=O)N1CCC[C@]12CC=CCCCC1(CCCC=CCCCOC(=O)N3CC[C@@](C(=O)N[C@@H](Cc4ccccc4)C(=O)N[C@@H](Cc4cccc5ccccc45)C(=O)N[C@@H](CCC(N)=O)C(N)=O)(C3)NC(=O)[C@H](CC(C)C)NC(=O)[C@H](Cc3ccccc3)NC(=O)[C@H](C)NC(=O)[C@H](C)NC(=O)[C@H]([C@@H](C)O)NC(=O)[C@H](CC(N)=O)NC1=O)NC(=O)[C@H](CC(C)(C)C)NC(=O)[C@H](CC(=O)O)NC2=O` (stereo partly drawn) [I-1298, Ac-PL3-Asp-Npg-B5-Asn-Thr-Ala-Ala-Phe-Leu-PyrS2-Phe-1NapA-Gln-NH2]: the “Solubility” value was determined as 10 µM (≈ 18.9 µg/mL).

In turn, `CC(=O)N1CCC[C@]12CC=CCCCC1(CCCC=CCCCOC(=O)N3CC[C@@](C(=O)N[C@@H](Cc4ccccc4Br)C(=O)N[C@@H](Cc4csc5ccccc45)C(=O)N[C@@H](CCC(N)=O)C(N)=O)(C3)NC(=O)[C@H](CC(C)C)NC(=O)[C@H](Cc3ccccc3)NC(=O)[C@H](C)NC(=O)[C@H](C)NC(=O)[C@H](CC(=O)O)NC(=O)[C@H](CC(=O)O)NC1=O)NC(=O)[C@H](CC(C)(C)C)NC(=O)[C@H](CC(=O)O)NC2=O` (stereo partly drawn) [I-1324, PL3-Asp-Npg-B5-Asp-Asp-Ala-Ala-Phe-Leu-PyrS2-2BrF-BztA-Gln-NH2] showed a solubility at 15 min of 25 µM (≈ 49.8 µg/mL).

`CC(=O)N1CCC[C@]12CC=CCCCC1(CCCC=CCCCOC(=O)N3CC[C@@](C(=O)N[C@@H](Cc4ccccc4Br)C(=O)N[C@@H](Cc4csc5ccccc45)C(=O)N[C@@H](CCC(N)=O)C(N)=O)(C3)NC(=O)[C@H](Cc3ccccc3)NC(=O)[C@H](Cc3ccccc3)NC(=O)[C@H](C)NC(=O)[C@H](C)NC(=O)[C@H](CC(=O)O)NC(=O)[C@H](CC(=O)O)NC1=O)NC(=O)[C@H](CC(C)(C)C)NC(=O)[C@H](CC(=O)O)NC2=O` (stereo partly drawn) [I-1325, PL3-Asp-Npg-B5-Asp-Asp-Ala-Ala-Phe-Phe-PyrS2-2BrF-BztA-Gln-NH2] showed a solubility at 15 min of 12 µM (≈ 24.3 µg/mL).

The molecule `COc1ccccc1C[C@H](NC(=O)[C@]12CCN(C1)C(=O)OCCCC=CCCCC1(CCCC=CC[C@]3(CCCN3C(C)=O)C(=O)N[C@@H](CC(=O)O)C(=O)N[C@@H](CC(C)(C)C)C(=O)N1)C(=O)N[C@@H](CC(=O)O)C(=O)N[C@@H](CC(=O)O)C(=O)N[C@@H](C)C(=O)N[C@@H](C)C(=O)N[C@@H](Cc1ccccc1)C(=O)N[C@@H](CC(C)C)C(=O)N2)C(=O)N[C@@H](Cc1csc2ccccc12)C(=O)N[C@@H](CCC(N)=O)C(N)=O` (stereo partly drawn) [I-1327, PL3-Asp-Npg-B5-Asp-Asp-Ala-Ala-Phe-Leu-PyrS2-2OMeF-BztA-Gln-NH2] registered a solubility at 15 min of 39 µM (≈ 75.7 µg/mL).

`COc1ccccc1C[C@H](NC(=O)[C@]12CCN(C1)C(=O)OCCCC=CCCCC1(CCCC=CC[C@]3(CCCN3C(C)=O)C(=O)N[C@@H](CC(=O)O)C(=O)N[C@@H](CC(C)(C)C)C(=O)N1)C(=O)N[C@@H](CC(=O)O)C(=O)N[C@@H](CC(=O)O)C(=O)N[C@@H](C)C(=O)N[C@@H](C)C(=O)N[C@@H](Cc1ccccc1)C(=O)N[C@@H](Cc1ccccc1)C(=O)N2)C(=O)N[C@@H](Cc1csc2ccccc12)C(=O)N[C@@H](CCC(N)=O)C(N)=O` (stereo partly drawn) [I-1328, PL3-Asp-Npg-B5-Asp-Asp-Ala-Ala-Phe-Phe-PyrS2-2OMeF-BztA-Gln-NH2] had a solubility at 15 min of 26 µM (≈ 51.4 µg/mL).

Regarding `CC(=O)N1CCC[C@]12CC=CCCCC1(CCCC=CCCCOC(=O)N3CC[C@@](C(=O)N[C@@H](CC4CCCCC4)C(=O)N[C@@H](Cc4csc5ccccc45)C(=O)N[C@@H](CCC(N)=O)C(N)=O)(C3)NC(=O)[C@H](CC(N)=O)NC(=O)[C@H](Cc3ccccc3)NC(=O)[C@H](C)NC(=O)[C@H](C)NC(=O)[C@H](CC(=O)O)NC(=O)[C@H](CC(=O)O)NC1=O)NC(=O)[C@H](CC(C)(C)C)NC(=O)[C@H](CC(=O)O)NC2=O` (stereo partly drawn) [I-1329, PL3-Asp-Npg-B5-Asp-Asp-Ala-Ala-Phe-Asn-PyrS2-Cha-BztA-Gln-NH2], the concentration in solution (solubility at 15 min) was 45 µM (≈ 86.3 µg/mL).

With `CC(=O)N1CCC[C@]12CC=CCCCC1(CCCC=CCCCOC(=O)N3CC[C@@](C(=O)N[C@@H](CC4CCCCC4)C(=O)N[C@@H](Cc4csc5ccccc45)C(=O)N[C@@H](CCC(N)=O)C(N)=O)(C3)NC(=O)[C@H](Cc3ccccc3)NC(=O)[C@H](Cc3ccccc3)NC(=O)[C@H](C)NC(=O)[C@H](C)NC(=O)[C@H](CC(=O)O)NC(=O)[C@H](CC(=O)O)NC1=O)NC(=O)[C@H](CC(C)(C)C)NC(=O)[C@H](CC(=O)O)NC2=O` (stereo partly drawn) [I-1331, PL3-Asp-Npg-B5-Asp-Asp-Ala-Ala-Phe-Phe-PyrS2-Cha-BztA-Gln-NH2], the “Solubility” value amounted to 10 µM (≈ 19.5 µg/mL).

Regarding `CC(=O)N1CCC[C@]12CC=CCCCC1(CCCC=CCCCOC(=O)N3CC[C@@](C(=O)N[C@@H](Cc4ccccc4Cl)C(=O)N[C@@H](Cc4csc5ccccc45)C(=O)N[C@@H](CCC(N)=O)C(N)=O)(C3)NC(=O)[C@H](CC(C)C)NC(=O)[C@H](Cc3ccccc3)NC(=O)[C@H](C)NC(=O)[C@H](C)NC(=O)[C@H](Cc3cccc(C(=O)O)c3)NC(=O)[C@H](CC(=O)O)NC1=O)NC(=O)[C@H](CC(C)(C)C)NC(=O)[C@H](CC(=O)O)NC2=O` (stereo partly drawn) [I-1332, PL3-Asp-Npg-B5-Asp-3COOHF-Ala-Ala-Phe-Leu-PyrS2-2C1F-BztA-Gln-NH2], the concentration in solution (solubility at 15 min) was 13 µM (≈ 26.3 µg/mL).

Turning to `CC(=O)N1CCC[C@]12CC=CCCCC1(CCCC=CCCCOC(=O)N3CC[C@@](C(=O)N[C@@H](Cc4ccccc4Cl)C(=O)N[C@@H](Cc4csc5ccccc45)C(=O)N[C@@H](CO)C(N)=O)(C3)NC(=O)[C@H](CC(C)C)NC(=O)[C@H](Cc3ccccc3)NC(=O)[C@H](C)NC(=O)[C@H](C)NC(=O)[C@H](Cc3cccc(C(=O)O)c3)NC(=O)[C@H](CC(=O)O)NC1=O)NC(=O)[C@H](CC(C)(C)C)NC(=O)[C@H](CC(=O)O)NC2=O` (stereo partly drawn) [I-1333, PL3-Asp-Npg-B5-Asp-3COOHF-Ala-Ala-Phe-Leu-PyrS2-2C1F-BztA-Ser-NH2], the “Solubility” value was 10 µM (≈ 19.8 µg/mL).
